In PubChem BioAssay (NCI):
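At the GI50, growth is halved. TGI is the concentration that stops growth completely.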

Experiments:
Assay in all cases: NCI-60 cell line screen, 384-well format; in the data active means GI50 below about 0.43 µM; inactive means the rest
A549 NSCLC = test system: A549 NSCLC
SW-620 colon = test system: SW-620 colon
UACC-257 melanoma = test system: UACC-257 melanoma
PC-3 prostate = test system: PC-3 prostate
K-562 leukemia = test system: K-562 leukemia
CCRF-CEM leukemia = test system: CCRF-CEM leukemia
HT29 colon = test system: HT29 colon
T-47D breast = test system: T-47D breast
HCT-116 colon = test system: HCT-116 colon
SK-MEL-2 melanoma = test system: SK-MEL-2 melanoma
RXF 393 renal = test system: RXF 393 renal
SK-OV-3 ovarian = test system: SK-OV-3 ovarian
UO-31 renal = test system: UO-31 renal
NCI-H522 lung = test system: NCI-H522 lung
MOLT-4 leukemia = test system: MOLT-4 leukemia
OVCAR-3 ovarian = test system: OVCAR-3 ovarian
OVCAR-8 ovarian = test system: OVCAR-8 ovarian
NCI-H460 NSCLC = test system: NCI-H460 NSCLC
SK-MEL-28 melanoma = test system: SK-MEL-28 melanoma
NCI-H226 lung = test system: NCI-H226 lung
OVCAR-5 ovarian = test system: OVCAR-5 ovarian
MDA-MB-468 breast = test system: MDA-MB-468 breast
HOP-92 NSCLC = test system: HOP-92 NSCLC
ACHN renal = test system: ACHN renal
MDA-MB-435 melanoma = test system: MDA-MB-435 melanoma
HL-60(TB) leukemia = test system: HL-60(TB) leukemia
DU-145 prostate = test system: DU-145 prostate
M14 melanoma = test system: M14 melanoma
U251 glioblastoma = test system: U251 glioblastoma
MCF7 breast = test system: MCF7 breast
HOP-62 NSCLC = test system: HOP-62 NSCLC
786-0 renal = test system: 786-0 renal
SNB-19 CNS = test system: SNB-19 CNS
SF-539 CNS = test system: SF-539 CNS
HCC-2998 colon = test system: HCC-2998 colon
MALME-3M melanoma = test system: MALME-3M melanoma
MDA-MB-231 breast = test system: MDA-MB-231 breast
RPMI-8226 leukemia = test system: RPMI-8226 leukemia
COLO 205 colon = test system: COLO 205 colon
SR leukemia = test system: SR leukemia
BT-549 breast = test system: BT-549 breast
OVCAR-4 ovarian = test system: OVCAR-4 ovarian
NCI-H322M lung = test system: NCI-H322M lung
SF-295 CNS = test system: SF-295 CNS
NCI-H23 lung = test system: NCI-H23 lung
KM12 colon = test system: KM12 colon
CAKI-1 renal = test system: CAKI-1 renal
TK-10 renal = test system: TK-10 renal
A498 renal = test system: A498 renal
SN12C renal = test system: SN12C renal
HCT-15 colon = test system: HCT-15 colon
NCI/ADR-RES ovarian = test system: NCI/ADR-RES ovarian
SF-268 CNS = test system: SF-268 CNS
LOX IMVI melanoma = test system: LOX IMVI melanoma
SK-MEL-5 melanoma = test system: SK-MEL-5 melanoma
IGROV1 ovarian = test system: IGROV1 ovarian
UACC-62 melanoma = test system: UACC-62 melanoma

Cn1ncnc1[C@@H]1c2n[nH]c(=O)c3cc(F)cc(c23)N[C@H]1c1ccc(F)cc1
inactive: GI50 (A549 NSCLC) > 100 µM | GI50 (SW-620 colon) 70.9 µM | GI50 (UACC-257 melanoma) > 100 µM | GI50 (PC-3 prostate) > 100 µM | GI50 (K-562 leukemia) > 100 µM | GI50 (CCRF-CEM leukemia) 40.9 µM | GI50 (HT29 colon) > 100 µM | GI50 (T-47D breast) > 100 µM | GI50 (HCT-116 colon) 74.9 µM | GI50 (SK-MEL-2 melanoma) > 100 µM | GI50 (RXF 393 renal) 52.3 µM | GI50 (SK-OV-3 ovarian) > 100 µM | GI50 (UO-31 renal) > 100 µM | GI50 (NCI-H522 lung) 97.7 µM | GI50 (MOLT-4 leukemia) 11.4 µM | GI50 (OVCAR-3 ovarian) > 100 µM | GI50 (OVCAR-8 ovarian) > 100 µM | GI50 (NCI-H460 NSCLC) 17.3 µM | GI50 (SK-MEL-28 melanoma) > 100 µM | GI50 (NCI-H226 lung) > 100 µM | GI50 (OVCAR-5 ovarian) > 100 µM | GI50 (MDA-MB-468 breast) 57.1 µM | GI50 (HOP-92 NSCLC) > 100 µM | GI50 (ACHN renal) > 100 µM | GI50 (MDA-MB-435 melanoma) > 100 µM | GI50 (HL-60(TB) leukemia) > 100 µM | GI50 (DU-145 prostate) > 100 µM | GI50 (M14 melanoma) > 100 µM | GI50 (U251 glioblastoma) > 100 µM | GI50 (MCF7 breast) > 100 µM | GI50 (HOP-62 NSCLC) > 100 µM | GI50 ([…]-0 renal) > 100 µM | GI50 (SNB-19 CNS) > 100 µM | GI50 (SF-539 CNS) > 100 µM | GI50 (HCC-2998 colon) 43.1 µM | GI50 (MALME-3M melanoma) > 100 µM | GI50 (MDA-MB-231 breast) > 100 µM | GI50 (RPMI-8226 leukemia) 78.9 µM | GI50 (COLO 205 colon) > 100 µM | GI50 (SR leukemia) 2.61 µM | GI50 (BT-549 breast) > 100 µM | GI50 (OVCAR-4 ovarian) > 100 µM | GI50 (NCI-H322M lung) > 100 µM | GI50 (SF-295 CNS) > 100 µM | GI50 (NCI-H23 lung) > 100 µM | GI50 (KM12 colon) > 100 µM | GI50 (CAKI-1 renal) > 100 µM | GI50 (TK-10 renal) > 100 µM | GI50 (A498 renal) > 100 µM | GI50 (SN12C renal) > 100 µM | GI50 (HCT-15 colon) > 100 µM | GI50 (NCI/ADR-RES ovarian) > 100 µM | GI50 (SF-268 CNS) > 100 µM | GI50 (LOX IMVI melanoma) > 100 µM | GI50 (SK-MEL-5 melanoma) > 100 µM | GI50 (IGROV1 ovarian) > 100 µM | GI50 (UACC-62 melanoma) > 100 µM
24.6 µM: TGI (MOLT-4 leukemia)
11.6 µM: TGI (SR leukemia)
> 100 µM: TGI (A549 NSCLC) | TGI (SW-620 colon) | TGI (UACC-257 melanoma) | TGI (PC-3 prostate) | TGI (K-562 leukemia) | TGI (CCRF-CEM leukemia) | TGI (HT29 colon) | TGI (T-47D breast) | TGI (HCT-116 colon) | TGI (SK-MEL-2 melanoma) | TGI (RXF 393 renal) | TGI (SK-OV-3 ovarian) | TGI (UO-31 renal) | TGI (NCI-H522 lung) | TGI (OVCAR-3 ovarian) | TGI (OVCAR-8 ovarian) | TGI (NCI-H460 NSCLC) | TGI (SK-MEL-28 melanoma) | TGI (NCI-H226 lung) | TGI (OVCAR-5 ovarian) | TGI (MDA-MB-468 breast) | TGI (HOP-92 NSCLC) | TGI (ACHN renal) | TGI (MDA-MB-435 melanoma) | TGI (HL-60(TB) leukemia) | TGI (DU-145 prostate) | TGI (M14 melanoma) | TGI (U251 glioblastoma) | TGI (MCF7 breast) | TGI (HOP-62 NSCLC) | TGI (786-0 renal) | TGI (SNB-19 CNS) | TGI (SF-539 CNS) | TGI (HCC-2998 colon) | TGI (MALME-3M melanoma) | TGI (MDA-MB-231 breast) | TGI (RPMI-8226 leukemia) | TGI (COLO 205 colon) | TGI (BT-549 breast) | TGI (OVCAR-4 ovarian) | TGI (NCI-H322M lung) | TGI (SF-295 CNS) | TGI (NCI-H23 lung) | TGI (KM12 colon) | TGI (CAKI-1 renal) | TGI (TK-10 renal) | TGI (A498 renal) | TGI (SN12C renal) | TGI (HCT-15 colon) | TGI (NCI/ADR-RES ovarian) | TGI (SF-268 CNS) | TGI (LOX IMVI melanoma) | TGI (SK-MEL-5 melanoma) | TGI (IGROV1 ovarian) | TGI (UACC-62 melanoma)
